In brackets after ≈: the same amount, converted by molar mass.
Tests used:
Streptococcus pneumoniae [1] = assay: Antibacterial activity against […] Streptococcus pneumoniae ATCC 49619 after 24 hrs by macrobroth dilution method; assay type: functional; conditions: ATCC 49619, 24 h
[2] = tested on: Staphylococcus epidermidis; assay: Antibacterial activity against methicillin-resistant Staphylococcus epidermidis ATCC 14990 after 24 hrs by macrobroth dilution method; assay type: functional; conditions: ATCC 14990, 24 h
Staphylococcus aureus [3] = assay: Antibacterial activity against methicillin-resistant Staphylococcus aureus ATCC 33592 after 24 hrs by macrobroth dilution method; assay type: functional; conditions: ATCC 33592, 24 h
[4] = tested on: Staphylococcus epidermidis; assay: Antibacterial activity against Staphylococcus epidermidis ATCC 1490 after 24 hrs by macrobroth dilution method; assay type: functional; conditions: ATCC 1490, 24 h
Escherichia coli [5] = assay: Antibacterial activity against Escherichia coli ATCC 25922 after 24 hrs by macrobroth dilution method; assay type: functional; conditions: ATCC 25922, 24 h
Escherichia coli [6] = assay: Antibacterial activity against gentamicin-resistant Escherichia coli ATCC 6174 after 24 hrs by macrobroth dilution method; assay type: functional; conditions: ATCC 6174, 24 h
Candida albicans = assay: Antibacterial activity against Candida albicans; assay type: functional
Staphylococcus aureus [7] = assay: Antibacterial activity against Staphylococcus aureus ATCC 29213 after 24 hrs by macrobroth dilution method; assay type: functional; conditions: ATCC 29213, 24 h
Pseudomonas aeruginosa = assay: Antibacterial activity against Pseudomonas aeruginosa ATCC 27853 after 24 hrs by macrobroth dilution method; assay type: functional; conditions: ATCC 27853, 24 h
Streptococcus pneumoniae [8] = assay: Antibacterial activity against Streptococcus pneumoniae ATCC 49619 after 24 hrs by macrobroth dilution method; conditions: ATCC 49619, 24 h
Staphylococcus aureus [9] = assay: Antibacterial activity against methicillin-susceptible Staphylococcus aureus after 24 hrs by macrobroth dilution method; assay type: functional
Staphylococcus aureus [10] = assay: Antibacterial activity against methicillin-resistant Staphylococcus aureus; assay type: functional
Staphylococcus aureus [11] = assay: Antibacterial activity against Staphylococcus aureus; assay type: functional
Escherichia coli [12] = assay: Antibacterial activity against Escherichia coli; assay type: functional

Compound | MIC (Streptococcus pneumoniae [1]) [mg/L] | MIC [2] [mg/L] | MIC (Staphylococcus aureus [3]) [mg/L] | MIC [4] [mg/L] | MIC (Escherichia coli [5]) [mg/L] | MIC (Escherichia coli [6]) [mg/L] | MIC (Candida albicans) [mg/L] | MIC (Staphylococcus aureus [7]) [mg/L] | MIC (Pseudomonas aeruginosa) [mg/L] | MIC (Streptococcus pneumoniae [8]) [mg/L] | MIC (Staphylococcus aureus [9]) [mg/L] | MIC (Staphylococcus aureus [10]) [mg/L] | MIC (Staphylococcus aureus [11]) [mg/L] | MIC (Escherichia coli [12]) [mg/L]
NC[C@@H]1O[C@H](O[C@H]2[C@@H](O)[C@H](O[C@@H]3[C@@H](O)[C@H](N)C[C@H](N)[C@H]3O[C@H]3O[C@H](CN)[C@@H](O)[C@H](O)[C@H]3N)O[C@@H]2CNC(=O)CCCc2ccc3ccc4cccc5ccc2c3c45)[C@H](N)[C@@H](O)[C@@H]1O | > 512 | 64 (≈ 72.4 µM) | 256 (≈ 290 µM) | 2 (≈ 2.26 µM) | 32 (≈ 36.2 µM) | 64 (≈ 72.4 µM) | ≥ 512 | 16 (≈ 18.1 µM) | 256 (≈ 290 µM) |  |  |  |  | 
CCCCCC(=O)NC[C@H]1O[C@@H](O[C@@H]2[C@@H](O)[C@H](N)C[C@H](N)[C@H]2O[C@H]2O[C@H](CN)[C@@H](O)[C@H](O)[C@H]2N)[C@H](O)[C@@H]1O[C@H]1O[C@@H](CN)[C@@H](O)[C@H](O)[C@H]1N |  | 32 (≈ 45 µM) | > 512 | 2 (≈ 2.81 µM) | 16 (≈ 22.5 µM) | 16 (≈ 22.5 µM) | ≥ 512 | 16 (≈ 22.5 µM) | > 512 | 64 (≈ 89.9 µM) |  |  |  | 
CCCCCCCCCCCCCCCC(=O)NC[C@H]1O[C@@H](O[C@@H]2[C@@H](O)[C@H](N)C[C@H](N)[C@H]2O[C@H]2O[C@H](CN)[C@@H](O)[C@H](O)[C@H]2N)[C@H](O)[C@@H]1O[C@H]1O[C@@H](CN)[C@@H](O)[C@H](O)[C@H]1N |  | 2 (≈ 2.35 µM) | 8 (≈ 9.39 µM) | 2 (≈ 2.35 µM) | 32 (≈ 37.6 µM) | 64 (≈ 75.1 µM) | ≥ 512 | 4 (≈ 4.69 µM) | 128 (≈ 150 µM) | 64 (≈ 75.1 µM) |  |  |  | 
CCCCCCCCCCCCCCCCCCCC(=O)NC[C@H]1O[C@@H](O[C@@H]2[C@@H](O)[C@H](N)C[C@H](N)[C@H]2O[C@H]2O[C@H](CN)[C@@H](O)[C@H](O)[C@H]2N)[C@H](O)[C@@H]1O[C@H]1O[C@@H](CN)[C@@H](O)[C@H](O)[C@H]1N | 64 (≈ 70.5 µM) | 4 (≈ 4.4 µM) | 8 (≈ 8.81 µM) | 4 (≈ 4.4 µM) | 128 (≈ 141 µM) | 128 (≈ 141 µM) | ≥ 512 | 8 (≈ 8.81 µM) | 64 (≈ 70.5 µM) |  |  |  |  | 
CCCCCCCCCCCC(=O)NC[C@H]1O[C@@H](O[C@@H]2[C@@H](O)[C@H](N)C[C@H](N)[C@H]2O[C@H]2O[C@H](CN)[C@@H](O)[C@H](O)[C@H]2N)[C@H](O)[C@@H]1O[C@H]1O[C@@H](CN)[C@@H](O)[C@H](O)[C@H]1N |  | 8 (≈ 10.1 µM) | > 512 | 4 (≈ 5.03 µM) | 64 (≈ 80.4 µM) | 64 (≈ 80.4 µM) | ≥ 512 | 32 (≈ 40.2 µM) | 256 (≈ 322 µM) | 128 (≈ 161 µM) |  |  |  | 
C[C@@H](CCC(=O)NC[C@H]1O[C@@H](O[C@@H]2[C@@H](O)[C@H](N)C[C@H](N)[C@H]2O[C@H]2O[C@H](CN)[C@@H](O)[C@H](O)[C@H]2N)[C@H](O)[C@@H]1O[C@H]1O[C@@H](CN)[C@@H](O)[C@H](O)[C@H]1N)[C@@H]1CC[C@H]2[C@@H]3[C@@H](O)C[C@H]4C[C@@H](O)CC[C@@]4(C)[C@H]3C[C@@H](O)[C@]21C (stereo in doubt) | > 256 | 16 (≈ 15.9 µM) | 128 (≈ 127 µM) | 8 (≈ 7.97 µM) | 32 (≈ 31.9 µM) | 64 (≈ 63.7 µM) | ≥ 512 | 16 (≈ 15.9 µM) | > 256 |  |  |  |  | 
CCCCCCCCCCCC(=O)O [DODECANOATE] |  |  | 400 (≈ 2000 µM) |  |  |  |  |  |  |  | 400 (≈ 2000 µM) |  |  | 
NC[C@@H]1O[C@H](O[C@H]2[C@@H](O)[C@H](O[C@@H]3[C@@H](O)[C@H](N)C[C@H](N)[C@H]3O[C@H]3O[C@H](CN)[C@@H](O)[C@H](O)[C@H]3N)O[C@@H]2CO)[C@H](N)[C@@H](O)[C@@H]1O [FRAMYCETIN] | 64 (≈ 104 µM) | 0.5 (≈ 0.813 µM) | 256 (≈ 416 µM) | 1 (≈ 1.63 µM) | 8 (≈ 13 µM) | 4 (≈ 6.51 µM) | ≥ 512 | 2 (≈ 3.25 µM) | 512 (≈ 833 µM) |  |  |  |  | 
CCCCCCCCCCCCC/C=C/[C@@H](O)[C@@H](N)CO [SPHINGOSINE] |  |  |  |  |  |  | 6 (≈ 20 µM) |  |  |  |  | 4 (≈ 13.4 µM) | 2 (≈ 6.68 µM) | 42 (≈ 140 µM)
